A word on the inhibition: it is the drop in the measured response relative to a control, in per cent.

Each structure is given as a SMILES string.

Holding throughout (settings): Compound concentration 10 µM
Test [1] addresses Histamine H3 receptor (Homo sapiens) (UniProt Q9Y5N1).
Description: PDSP Primary Binding target: HRH3 - Compounds are tested at 10 uM concentration, plate are incubated at room temperature in the dark for 90 minutes. Reaction are stopped by vacuum filtration onto 0.3% polyethyleneimine soaked filter mats using Filtermate harvester. Scintilation cocktail is then melted onto microwave-dried filters on a hot plate and the radio activity is counted in Microbia counter.
Test [2] addresses T1, 5-hydroxytryptamine receptor 1A (Homo sapiens) (UniProt P08908).
T1 sequence (whole entry): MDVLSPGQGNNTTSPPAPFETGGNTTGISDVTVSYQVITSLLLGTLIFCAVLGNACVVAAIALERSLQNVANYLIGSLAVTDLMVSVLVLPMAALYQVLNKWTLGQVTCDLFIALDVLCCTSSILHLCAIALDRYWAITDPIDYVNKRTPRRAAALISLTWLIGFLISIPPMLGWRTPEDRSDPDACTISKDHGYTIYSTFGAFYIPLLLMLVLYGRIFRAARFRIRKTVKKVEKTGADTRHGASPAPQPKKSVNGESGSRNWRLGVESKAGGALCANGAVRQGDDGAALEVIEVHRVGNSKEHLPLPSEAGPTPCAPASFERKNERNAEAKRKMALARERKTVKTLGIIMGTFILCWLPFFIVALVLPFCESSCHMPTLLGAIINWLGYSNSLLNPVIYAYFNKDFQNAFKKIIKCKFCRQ
Description: PDSP Primary Binding target: HTR1A - Compounds are tested at 10 uM concentration, plate are incubated at room temperature in the dark for 90 minutes. Reaction are stopped by vacuum filtration onto 0.3% polyethyleneimine soaked filter mats using Filtermate harvester. Scintilation cocktail is then melted onto microwave-dried filters on a hot plate and the radio activity is counted in Microbia counter.

For test [3], the target named is 5-hydroxytryptamine receptor 1B (Homo sapiens) (UniProt P28222).
Chain of 5-hydroxytryptamine receptor 1B (Homo sapiens) (P28222 whole entry): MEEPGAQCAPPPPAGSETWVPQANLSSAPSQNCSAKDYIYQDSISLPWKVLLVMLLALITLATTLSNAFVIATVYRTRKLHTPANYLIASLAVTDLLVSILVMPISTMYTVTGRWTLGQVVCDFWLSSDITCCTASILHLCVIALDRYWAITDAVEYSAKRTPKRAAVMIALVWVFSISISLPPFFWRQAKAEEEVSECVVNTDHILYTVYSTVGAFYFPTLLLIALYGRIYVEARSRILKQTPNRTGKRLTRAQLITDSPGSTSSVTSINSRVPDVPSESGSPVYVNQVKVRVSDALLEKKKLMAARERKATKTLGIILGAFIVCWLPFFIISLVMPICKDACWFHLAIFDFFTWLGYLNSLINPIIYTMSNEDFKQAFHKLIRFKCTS
Description: PDSP Primary Binding target: HTR1B - Compounds are tested at 10 uM concentration, plate are incubated at room temperature in the dark for 90 minutes. Reaction are stopped by vacuum filtration onto 0.3% polyethyleneimine soaked filter mats using Filtermate harvester. Scintilation cocktail is then melted onto microwave-dried filters on a hot plate and the radio activity is counted in Microbia counter.
Test [4] addresses Kappa-type opioid receptor (Homo sapiens) (UniProt P41145).
Description: PDSP Primary Binding target: OPRK1 - Compounds are tested at 10 uM concentration, plate are incubated at room temperature in the dark for 90 minutes. Reaction are stopped by vacuum filtration onto 0.3% polyethyleneimine soaked filter mats using Filtermate harvester. Scintilation cocktail is then melted onto microwave-dried filters on a hot plate and the radio activity is counted in Microbia counter.
The target in test [5] is D(1B) dopamine receptor (Homo sapiens) (UniProt P21918).
Chain of D(1B) dopamine receptor (Homo sapiens) (P21918 whole entry): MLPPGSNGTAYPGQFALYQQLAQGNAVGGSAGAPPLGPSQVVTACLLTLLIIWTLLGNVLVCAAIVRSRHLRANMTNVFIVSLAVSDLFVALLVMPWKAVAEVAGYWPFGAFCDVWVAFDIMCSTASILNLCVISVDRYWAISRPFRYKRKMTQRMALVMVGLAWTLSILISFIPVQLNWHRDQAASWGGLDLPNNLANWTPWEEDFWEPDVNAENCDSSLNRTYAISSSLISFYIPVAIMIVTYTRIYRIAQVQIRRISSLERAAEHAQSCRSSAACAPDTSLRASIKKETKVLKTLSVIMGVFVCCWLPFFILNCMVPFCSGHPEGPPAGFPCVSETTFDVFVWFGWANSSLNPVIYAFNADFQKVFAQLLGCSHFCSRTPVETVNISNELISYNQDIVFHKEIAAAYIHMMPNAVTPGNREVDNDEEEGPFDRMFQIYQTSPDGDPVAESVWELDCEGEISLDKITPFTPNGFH
Description: PDSP Primary Binding target: DRD5 - Compounds are tested at 10 uM concentration, plate are incubated at room temperature in the dark for 90 minutes. Reaction are stopped by vacuum filtration onto 0.3% polyethyleneimine soaked filter mats using Filtermate harvester. Scintilation cocktail is then melted onto microwave-dried filters on a hot plate and the radio activity is counted in Microbia counter.
Test [6] has as its target T2, Alpha-1D adrenergic receptor (Homo sapiens) (UniProt P25100).
T2 sequence (whole entry): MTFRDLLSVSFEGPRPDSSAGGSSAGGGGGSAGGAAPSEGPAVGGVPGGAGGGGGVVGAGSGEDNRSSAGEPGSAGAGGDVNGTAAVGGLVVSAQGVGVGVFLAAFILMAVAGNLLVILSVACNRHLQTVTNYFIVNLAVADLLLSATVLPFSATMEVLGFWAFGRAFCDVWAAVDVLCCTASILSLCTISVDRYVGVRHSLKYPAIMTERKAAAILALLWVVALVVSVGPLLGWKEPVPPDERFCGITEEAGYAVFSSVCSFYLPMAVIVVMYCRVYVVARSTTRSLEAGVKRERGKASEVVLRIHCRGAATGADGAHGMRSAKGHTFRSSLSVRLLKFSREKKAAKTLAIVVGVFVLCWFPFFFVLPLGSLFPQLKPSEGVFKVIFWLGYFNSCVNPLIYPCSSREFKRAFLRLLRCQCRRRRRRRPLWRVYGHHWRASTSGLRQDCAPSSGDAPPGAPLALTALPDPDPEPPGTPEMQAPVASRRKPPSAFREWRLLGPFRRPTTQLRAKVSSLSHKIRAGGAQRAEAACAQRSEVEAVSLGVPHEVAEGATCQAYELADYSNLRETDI
Description: PDSP Primary Binding target: ADRA1D - Compounds are tested at 10 uM concentration, plate are incubated at room temperature in the dark for 90 minutes. Reaction are stopped by vacuum filtration onto 0.3% polyethyleneimine soaked filter mats using Filtermate harvester. Scintilation cocktail is then melted onto microwave-dried filters on a hot plate and the radio activity is counted in Microbia counter.

In test [7] the target is D(3) dopamine receptor (Homo sapiens) (UniProt P35462).
Chain of D(3) dopamine receptor (Homo sapiens) (P35462 whole entry): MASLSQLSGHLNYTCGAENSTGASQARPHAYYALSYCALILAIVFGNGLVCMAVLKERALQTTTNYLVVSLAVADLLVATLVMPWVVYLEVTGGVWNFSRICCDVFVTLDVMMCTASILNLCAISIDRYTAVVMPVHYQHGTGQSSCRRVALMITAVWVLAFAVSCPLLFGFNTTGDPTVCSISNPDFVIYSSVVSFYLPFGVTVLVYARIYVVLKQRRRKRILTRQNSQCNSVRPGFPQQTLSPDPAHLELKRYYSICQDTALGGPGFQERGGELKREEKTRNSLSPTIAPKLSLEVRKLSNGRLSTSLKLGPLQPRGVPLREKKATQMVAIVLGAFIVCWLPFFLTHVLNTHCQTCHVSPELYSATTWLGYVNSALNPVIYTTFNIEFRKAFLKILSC
Description: PDSP Primary Binding target: DRD3 - Compounds are tested at 10 uM concentration, plate are incubated at room temperature in the dark for 90 minutes. Reaction are stopped by vacuum filtration onto 0.3% polyethyleneimine soaked filter mats using Filtermate harvester. Scintilation cocktail is then melted onto microwave-dried filters on a hot plate and the radio activity is counted in Microbia counter.
The target of test [8] is Beta-1 adrenergic receptor (Homo sapiens) (UniProt P08588).
Chain of Beta-1 adrenergic receptor (Homo sapiens) (P08588 whole entry, looked up): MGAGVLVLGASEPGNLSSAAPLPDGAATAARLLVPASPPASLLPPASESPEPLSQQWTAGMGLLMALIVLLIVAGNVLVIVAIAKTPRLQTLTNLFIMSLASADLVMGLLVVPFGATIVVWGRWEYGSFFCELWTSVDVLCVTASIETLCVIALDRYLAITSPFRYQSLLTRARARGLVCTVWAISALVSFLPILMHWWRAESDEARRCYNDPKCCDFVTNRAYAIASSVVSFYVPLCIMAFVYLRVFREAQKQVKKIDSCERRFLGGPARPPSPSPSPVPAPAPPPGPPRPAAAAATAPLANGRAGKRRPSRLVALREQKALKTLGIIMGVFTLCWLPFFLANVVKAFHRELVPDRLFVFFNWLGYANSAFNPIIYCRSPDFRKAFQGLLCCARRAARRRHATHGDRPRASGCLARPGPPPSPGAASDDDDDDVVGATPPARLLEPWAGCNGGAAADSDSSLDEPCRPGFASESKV
Description: PDSP Primary Binding target: ADRB1 - Compounds are tested at 10 uM concentration, plate are incubated at room temperature in the dark for 90 minutes. Reaction are stopped by vacuum filtration onto 0.3% polyethyleneimine soaked filter mats using Filtermate harvester. Scintilation cocktail is then melted onto microwave-dried filters on a hot plate and the radio activity is counted in Microbia counter.
The target of test [9] is 5-hydroxytryptamine receptor 2A (Homo sapiens) (UniProt P28223).
Chain of 5-hydroxytryptamine receptor 2A (Homo sapiens) (P28223 whole entry): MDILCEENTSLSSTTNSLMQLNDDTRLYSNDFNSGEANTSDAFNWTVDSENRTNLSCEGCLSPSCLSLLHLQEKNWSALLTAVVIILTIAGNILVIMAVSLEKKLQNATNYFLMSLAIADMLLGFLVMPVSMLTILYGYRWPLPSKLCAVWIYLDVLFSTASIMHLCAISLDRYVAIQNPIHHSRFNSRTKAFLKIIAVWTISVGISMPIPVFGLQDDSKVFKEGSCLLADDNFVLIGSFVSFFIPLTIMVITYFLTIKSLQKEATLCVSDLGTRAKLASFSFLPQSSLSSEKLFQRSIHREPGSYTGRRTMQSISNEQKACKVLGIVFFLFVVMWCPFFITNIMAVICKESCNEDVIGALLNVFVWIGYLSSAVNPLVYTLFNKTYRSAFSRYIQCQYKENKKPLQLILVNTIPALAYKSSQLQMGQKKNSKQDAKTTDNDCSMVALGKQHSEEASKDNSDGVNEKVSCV
Description: PDSP Primary Binding target: HTR2A - Compounds are tested at 10 uM concentration, plate are incubated at room temperature in the dark for 90 minutes. Reaction are stopped by vacuum filtration onto 0.3% polyethyleneimine soaked filter mats using Filtermate harvester. Scintilation cocktail is then melted onto microwave-dried filters on a hot plate and the radio activity is counted in Microbia counter.
The target of test [10] is T3, Alpha-1B adrenergic receptor (Homo sapiens) (UniProt P35368).
T3 sequence (whole entry): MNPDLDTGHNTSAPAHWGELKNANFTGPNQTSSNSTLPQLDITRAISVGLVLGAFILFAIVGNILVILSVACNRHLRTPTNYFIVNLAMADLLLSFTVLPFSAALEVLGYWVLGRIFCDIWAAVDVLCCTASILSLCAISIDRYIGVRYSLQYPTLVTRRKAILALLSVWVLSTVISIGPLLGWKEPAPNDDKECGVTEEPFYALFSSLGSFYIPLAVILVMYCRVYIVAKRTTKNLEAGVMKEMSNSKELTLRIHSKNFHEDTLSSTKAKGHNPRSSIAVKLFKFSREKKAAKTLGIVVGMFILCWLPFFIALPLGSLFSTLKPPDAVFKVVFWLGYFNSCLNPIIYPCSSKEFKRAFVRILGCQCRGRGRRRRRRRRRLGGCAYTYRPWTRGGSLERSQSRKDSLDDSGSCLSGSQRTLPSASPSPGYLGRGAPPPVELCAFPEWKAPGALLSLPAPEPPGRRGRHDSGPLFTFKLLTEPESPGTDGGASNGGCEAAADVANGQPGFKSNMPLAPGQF
Description: PDSP Primary Binding target: ADRA1B - Compounds are tested at 10 uM concentration, plate are incubated at room temperature in the dark for 90 minutes. Reaction are stopped by vacuum filtration onto 0.3% polyethyleneimine soaked filter mats using Filtermate harvester. Scintilation cocktail is then melted onto microwave-dried filters on a hot plate and the radio activity is counted in Microbia counter.

Test [11] deals with Beta-2 adrenergic receptor (Homo sapiens) (UniProt P07550).
Chain of Beta-2 adrenergic receptor (Homo sapiens) (P07550 whole entry, looked up): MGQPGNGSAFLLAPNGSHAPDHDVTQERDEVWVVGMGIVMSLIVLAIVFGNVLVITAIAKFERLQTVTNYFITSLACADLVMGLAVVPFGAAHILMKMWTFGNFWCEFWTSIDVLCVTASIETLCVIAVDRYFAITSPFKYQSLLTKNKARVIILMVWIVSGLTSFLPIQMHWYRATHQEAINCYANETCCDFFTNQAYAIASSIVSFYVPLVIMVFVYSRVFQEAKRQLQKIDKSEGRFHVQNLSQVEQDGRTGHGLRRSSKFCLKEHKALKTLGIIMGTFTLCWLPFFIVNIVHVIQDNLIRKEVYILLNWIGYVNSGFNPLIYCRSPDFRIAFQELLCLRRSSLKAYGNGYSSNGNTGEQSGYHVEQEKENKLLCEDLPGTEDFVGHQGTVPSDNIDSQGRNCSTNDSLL
Description: PDSP Primary Binding target: ADRB2 - Compounds are tested at 10 uM concentration, plate are incubated at room temperature in the dark for 90 minutes. Reaction are stopped by vacuum filtration onto 0.3% polyethyleneimine soaked filter mats using Filtermate harvester. Scintilation cocktail is then melted onto microwave-dried filters on a hot plate and the radio activity is counted in Microbia counter.
Test [12] addresses T4, D(4) dopamine receptor (Homo sapiens) (UniProt P21917).
T4 sequence (whole entry): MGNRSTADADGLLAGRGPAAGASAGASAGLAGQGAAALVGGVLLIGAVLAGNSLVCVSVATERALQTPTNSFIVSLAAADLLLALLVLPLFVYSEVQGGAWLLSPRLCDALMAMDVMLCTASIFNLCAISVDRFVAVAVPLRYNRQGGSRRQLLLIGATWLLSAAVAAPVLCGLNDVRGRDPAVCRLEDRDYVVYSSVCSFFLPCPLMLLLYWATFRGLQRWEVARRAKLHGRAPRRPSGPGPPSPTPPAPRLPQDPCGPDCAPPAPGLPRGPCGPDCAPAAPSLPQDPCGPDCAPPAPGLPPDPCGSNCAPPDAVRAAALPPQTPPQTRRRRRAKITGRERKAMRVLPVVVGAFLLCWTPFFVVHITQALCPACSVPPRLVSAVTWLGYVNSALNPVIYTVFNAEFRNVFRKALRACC
Description: PDSP Primary Binding target: DRD4 - Compounds are tested at 10 uM concentration, plate are incubated at room temperature in the dark for 90 minutes. Reaction are stopped by vacuum filtration onto 0.3% polyethyleneimine soaked filter mats using Filtermate harvester. Scintilation cocktail is then melted onto microwave-dried filters on a hot plate and the radio activity is counted in Microbia counter.

For test [13], the target named is T5, Muscarinic acetylcholine receptor M4 (Homo sapiens) (UniProt P08173).
T5 sequence (whole entry): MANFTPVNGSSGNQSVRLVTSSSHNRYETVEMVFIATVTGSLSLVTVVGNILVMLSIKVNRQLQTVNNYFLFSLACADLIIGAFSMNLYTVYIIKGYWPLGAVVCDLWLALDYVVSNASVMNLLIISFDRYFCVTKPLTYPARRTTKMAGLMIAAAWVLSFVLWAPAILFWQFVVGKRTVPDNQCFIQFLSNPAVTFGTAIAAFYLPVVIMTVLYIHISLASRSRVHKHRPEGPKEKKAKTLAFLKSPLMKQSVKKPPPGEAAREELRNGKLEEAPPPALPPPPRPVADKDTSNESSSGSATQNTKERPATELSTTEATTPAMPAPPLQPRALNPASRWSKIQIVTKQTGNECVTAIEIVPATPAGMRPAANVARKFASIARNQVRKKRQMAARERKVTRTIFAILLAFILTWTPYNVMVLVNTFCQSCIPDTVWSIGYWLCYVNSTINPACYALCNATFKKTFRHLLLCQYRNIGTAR
Description: PDSP Primary Binding target: CHRM4 - Compounds are tested at 10 uM concentration, plate are incubated at room temperature in the dark for 90 minutes. Reaction are stopped by vacuum filtration onto 0.3% polyethyleneimine soaked filter mats using Filtermate harvester. Scintilation cocktail is then melted onto microwave-dried filters on a hot plate and the radio activity is counted in Microbia counter.

Chain of Histamine H3 receptor (Homo sapiens) (Q9Y5N1 whole entry): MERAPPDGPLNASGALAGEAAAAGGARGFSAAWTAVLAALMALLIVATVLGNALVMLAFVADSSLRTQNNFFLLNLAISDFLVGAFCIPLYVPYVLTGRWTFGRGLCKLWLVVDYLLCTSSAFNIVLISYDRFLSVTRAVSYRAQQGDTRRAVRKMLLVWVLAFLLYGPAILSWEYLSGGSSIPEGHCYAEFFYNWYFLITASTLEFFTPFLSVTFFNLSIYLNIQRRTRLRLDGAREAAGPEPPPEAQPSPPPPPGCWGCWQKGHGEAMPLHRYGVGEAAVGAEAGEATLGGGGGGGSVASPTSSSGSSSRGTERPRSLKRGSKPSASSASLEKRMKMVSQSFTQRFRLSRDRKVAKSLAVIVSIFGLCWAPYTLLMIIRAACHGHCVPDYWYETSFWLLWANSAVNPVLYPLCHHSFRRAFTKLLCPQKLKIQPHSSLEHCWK
Chain of Kappa-type opioid receptor (Homo sapiens) (P41145 whole entry): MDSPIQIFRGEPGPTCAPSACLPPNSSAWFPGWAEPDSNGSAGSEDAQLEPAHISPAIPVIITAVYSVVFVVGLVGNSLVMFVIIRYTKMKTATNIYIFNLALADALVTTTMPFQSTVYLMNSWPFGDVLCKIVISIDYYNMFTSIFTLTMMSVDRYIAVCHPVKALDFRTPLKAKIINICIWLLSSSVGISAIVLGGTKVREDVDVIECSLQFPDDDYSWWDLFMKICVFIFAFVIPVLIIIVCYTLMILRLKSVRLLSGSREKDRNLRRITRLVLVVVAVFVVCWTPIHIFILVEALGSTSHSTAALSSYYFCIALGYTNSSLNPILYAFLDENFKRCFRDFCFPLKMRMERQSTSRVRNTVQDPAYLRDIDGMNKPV

As to `Cc1csc2c(N[C@@H](C)CN3CCN(S(=O)(=O)c4ccc(Cl)c(Cl)c4)CC3)ncnc12`, the inhibition is 2.97% in test [1]; 17% in test [2]; -1.11% in test [3]; 85.4% in test [4]; 5.96% in test [5]; -3.91% in test [6]. Further, the inhibition in test [7] is 67.4%; in test [8], 26.2%; in [9], 31%; in test [10], 7.3%; in test [11], 1.66%; in test [12], 19.2%.
With `CCCCN(CCCC)C(=O)CN1C[C@@H](c2ccc3c(c2)OCO3)[C@H](C(=O)O)[C@H]1c1ccc(OC)cc1`, the inhibition in test [1] is -6.84%; in test [2], -4.59%; in test [3], -0.63%; in test [4] it was 27.6%; in test [7], 28.4%; in [8] it was -6.31%. Further, the inhibition is 13.8% in [9], -5.54% in [10], 7.9% in test [13] and 60.5% in test [12].
For the molecule `CCc1cc(C(C)=O)c(O)cc1OCCCCCC(C)(C)c1nn[nH]n1`, the inhibition in test [1] was 0.93%; in test [2] it was -8.57%; in [3], 14.7%; in test [4], 16.9%; in test [6], 19.5%; in test [7] it was 46.8%. The inhibition in test [8] is 18.3%; in [9], 12.7%; in test [10] it was -3.95%; in test [13] it was -4.28%; in [12], 22.6%.
On to `C[C@H](Cc1cc2c(c(C(N)=O)c1)N(CCCO)CC2)NCCOc1ccccc1OCC(F)(F)F`, for which the inhibition in [2] is 100%; in test [3], 92.3%; in [4] it was 4.22%; in [6], 86.5%; in test [7], 94.1%; in test [8], 31.1%. Besides, the inhibition in [9] was 36.2%; in test [10], 81.6%; in test [13], -8.65%; in [11], 99%; in test [12], 63.3%.
Regarding `COc1ccc(C2(O)OC(=O)C(c3ccc4c(c3)OCO4)=C2Cc2cc(OC)c(OC)c(OC)c2)cc1` (stereo unspecified), the inhibition in test [1] is -8.58%; in [2], 8.87%; in test [3], 2.7%; in [4], 9.13%; in test [6] it was 11%; in [7], -2.35%. Also, the inhibition was -2.63% in [8]; 12.4% in [9]; -4.11% in test [10]; 1.32% in test [13]; 7.04% in [12].
For `CSc1ccc(C(=O)N[C@@H]2CCCC[C@@H]2NC(=O)CNC(=O)c2cc(C(F)(F)F)ccc2NC(=O)NC(C)C)cc1`, the inhibition in [1] was 4.61%; in [2], 22.6%; in [4] it was 15.3%; in [7] it was 86.6%; in [8], -9.46%; in test [9], 9.73%. Further, the inhibition in test [10] was -0.4%; in [13], 6.91%; in test [11] it was 6.71%; in [12], 3.27%.
With `COc1ccccc1CN[C@H]1C2CCN(CC2)[C@H]1C(c1ccccc1)c1ccccc1`, the inhibition in [1] is 11.3%; in test [2] it was -1.15%; in [3] it was 8.03%; in [4] it was 49.1%; in test [6], 11.1%; in [7], 43%. Also, the inhibition in test [8] is 17%; in test [9], 13.4%; in [10], 1.04%; in test [13], -4.3%; in test [12], 15.3%.
In the case of `N=C(N)SCCc1c[nH]cn1`, the inhibition in [1] is 98.6%; in test [3], 8.52%; in test [4], 5.15%; in test [5], 3.23%; in [6], 8.64%; in test [7], -0.38%. Besides, the inhibition in test [8] was 3.8%; in [9] it was -6.33%; in test [10], -9.87%; in [11], 6.81%; in test [12] it was 6.59%.
On to `C[C@@H](NCCc1ccc(O)cc1)[C@@H](O)c1ccc(O)cc1` (relative stereo), for which the inhibition in [1] was 0.59%; in test [2], -2.23%; in test [3], 2.73%; in test [4], 23.2%; in test [6], 0.11%; in test [7] it was 34.6%. In addition, the inhibition is 13.4% in test [8]; 5.36% in test [9]; 21.4% in test [10]; 33% in [13]; 36.5% in [11]; -1.86% in test [12].
For `S=C(NCCCc1c[nH]cn1)NCCCN(Cc1ccc(Cl)c(Cl)c1)c1ccc(Br)cn1`, the inhibition in test [1] is 100%; in [2] it was 43.2%; in test [3], 93.3%; in test [4], 64.9%; in [5] it was 51.4%; in test [6] it was 65.9%. Moreover, the inhibition in test [7] is 62.3%; in [8] it was 49.2%; in [9], 85.2%; in [10] it was 89.3%; in [11], 40%; in [12], 40.9%.
